Test results: patent publication US20160075651A1, “GLYCOLIPID INHIBITION USING IMINOSUGARS” (UNITHER VIROLOGY, LLC, priority 2013, published 2016)
Where a chain is given by its changes, count along the chain named. Where two headings read alike, the source gives them in different places.

Key:
ER alpha glucosidase = test: Free oligosaccharide analysis (measure of ER alpha glucosidase inhibition); assay type: cell-based; settings: FIG. 13, compared with UV-4
Description: Free glucosyl oligosaccharides were measured according to Alonzi et al. Biochem. J. (2008) 409, 571-580.

[1] = tested on: glucosylceramide and lactosylceramide in Huh7.5 cells; test: Cellular glucosylceramide and lactosylceramide measurement in Huh7.5 hepatoma cells (lipidomics); assay type: cell-based; settings: human hepatoma cells (Huh7.5), 10 μM, 4 days
Description: Glycosphingolipids (including GlcCer and LacCer) were measured according to Wolf, C. and Quinn, P. J. Progress in lipid research (2008) 47, 15-36. Briefly, chloroform-methanol extracts of cellular lipids were subjected to HPLC to isolate the glycosphingolipid species from other cellular lipids, then subjected to two-dimentional mass-spectromertry with internal standards in order to quantify particular glycosphingolipid species.
Huh7.5 cells were grown in DMEM supplemented with 100 U/ml penicillin, […] streptomycin, 2 mM L-glutamine, 1×MEM, and 10% FBS. All incubations were at 37° C./5% CO2. The effect of iminosugar treatment on cellular lipid profiles was determined in cells after incubation for 4 days in the presence or absence of iminosugars, at which point they were harvested using trypsin/EDTA, washed 3 times in cold PBS, counted using trypan blue staining, and final cell pellets were resuspended in methanol:acetone (vol 1:1) prior to lipid profiling, A small volume of each sample was used for total protein estimation using the Bradford protein assay (Bio-Rad).
The methodology has been described in detail previously (Wolf, C., Quinn, P. J., Lipidomics: Practical aspects and applications. Progress in Lipid Research 2008, 47, 15-36: Quinn, P. J., Rainteau, D., Wolf, C., Lipidomics of the red cell in diagnosis of human disorders. Methods Mol Biol 2009, 579, 127-159). […]

[2] = biological target: T1, human placental β-glucocerebrosidase (Homo sapiens, UniProt P04062); test: β-Glucocerebrosidase inhibition assay (4-methylumbelliferyl-β-glucoside, fluorogenic); assay type: biochemical
T1 construct: Human placental β-glucocerebrosidase was isolated and purified; from tissue; host or cells: human placenta
T1 sequence (P04062 40-536): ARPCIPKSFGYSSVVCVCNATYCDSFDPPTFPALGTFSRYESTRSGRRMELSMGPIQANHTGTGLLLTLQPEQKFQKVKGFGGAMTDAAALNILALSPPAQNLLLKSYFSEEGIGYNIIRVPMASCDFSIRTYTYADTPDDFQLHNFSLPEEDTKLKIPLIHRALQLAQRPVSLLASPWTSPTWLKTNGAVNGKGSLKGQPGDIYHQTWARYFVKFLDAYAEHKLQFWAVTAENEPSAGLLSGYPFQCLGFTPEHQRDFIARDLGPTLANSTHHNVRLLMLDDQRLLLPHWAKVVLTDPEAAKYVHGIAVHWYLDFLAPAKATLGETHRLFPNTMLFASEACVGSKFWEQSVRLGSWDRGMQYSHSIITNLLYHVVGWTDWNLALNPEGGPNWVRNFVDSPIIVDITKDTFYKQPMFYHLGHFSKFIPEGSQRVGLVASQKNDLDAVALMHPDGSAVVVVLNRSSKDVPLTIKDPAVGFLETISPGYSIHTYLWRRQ

[3] = biological target: T2, β-glucocerebrosidase (N370S mutant) (Homo sapiens, UniProt P04062, N409S); test: β-Glucocerebrosidase activation (chaperone) assay in Gaucher N370S cells; assay type: cell-based; settings: 3 days, versus untreated cells
T2 construct: mutant Gaucher lymphoblasts with the most common N370S mutation; endogenous in cells; host or cells: Gaucher (N370S) lymphoblasts
T2 sequence (P04062 40-536 N409S): T1 sequence (P04062 40-536) with N370S

[4] = biological target: T3, ceramide glucosyltransferase (Homo sapiens, UniProt Q16739); test: Ceramide glucosyltransferase cellular assay (GM3 reduction in HL60 cells, NP-HPLC); assay type: cell-based; settings: for IC50: 3 days, GM3 peak area
T3 construct: endogenous in cells; host or cells: HL60 cells
T3 sequence (Q16739 1-394): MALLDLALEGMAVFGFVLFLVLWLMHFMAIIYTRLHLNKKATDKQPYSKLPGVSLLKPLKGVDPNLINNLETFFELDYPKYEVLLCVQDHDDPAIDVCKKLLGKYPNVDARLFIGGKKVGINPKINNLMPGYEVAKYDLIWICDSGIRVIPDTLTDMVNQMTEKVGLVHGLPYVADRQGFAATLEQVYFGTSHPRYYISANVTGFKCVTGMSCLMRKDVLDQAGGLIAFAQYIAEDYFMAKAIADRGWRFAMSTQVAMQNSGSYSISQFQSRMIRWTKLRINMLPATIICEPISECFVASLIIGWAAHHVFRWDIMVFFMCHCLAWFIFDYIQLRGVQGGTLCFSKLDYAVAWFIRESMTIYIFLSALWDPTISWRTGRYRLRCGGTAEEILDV

SMILES | ER glucosidase inhibitory activity (free oligosaccharide analysis) (ER alpha glucosidase) | inhibition of the cellular glucosylceramide / lactosylceramide pathway [1] | IC50 ([2]; human placental enzyme, 0.5 mM 4-MU-β-glucoside, pH 5.2) [nM] | Activation fold at 10 μM ([3]; 10 μM) [fold] | IC50 [4] [nM] | potency in cells relative to NB-DNJ ([4]; GM3 reduction, versus NB-DNJ (Zavesca)) | IC50 [2] [nM] | Activation fold (@ 1 μM) ([3]; 1 μM)
Cc1c(C)c2c(c(C)c1OCCCCCN1C[C@H](O)[C@@H](O)[C@H](O)[C@H]1CO)CC[C@@](C)(CCC[C@H](C)CCC[C@H](C)CCCC(C)C)O2 [Top-DNJ, tocopheryl-pentyl deoxynojirimycin] | virtually devoid of ER glucosidase inhibitory activity | near-complete inhibition |  |  |  |  |  | 
COCCCCCCCCCN1C[C@H](O)[C@@H](O)[C@H](O)[C@H]1CO [UV4, N-(9-methoxynonyl)deoxynojirimycin] |  |  | 1850 ± 40 | 2.1 | 190 ± 21 | approximately 100 times |  | 
[N-]=[N+]=Nc1ccc(NCCCCCCN2C[C@H](O)[C@@H](O)[C@H](O)[C@H]2CO)c([N+](=O)[O-])c1 [UV5, N—(N′-{4′-azido-2′-nitrophenyl)-6-aminohexyl)-deoxynojirimycin] |  |  |  |  | 49 ± 5 |  | 150 ± 30 | 1.7 (@ 1 μM) fold
